The values below come from patent publication US7943146B2, “Immunizing compositions comprising HIV-1 proviral constructs with an inactive p6 gag TSG101 UEV binding domain capable of producing budding-defective viral particles that remain tethered to the cell surface” (priority 2001, dated 2011).

One data set has as its system HIV. The data set can be described thus: microbe, parasite or virus in culture. The format is cell-based, HIV-1. The procedure: Fresh human blood was obtained commercially from Interstate Blood Bank, Inc. (Memphis, Tenn.). The lymphotropic clinical isolate HIV-1ROJO was obtained from a pediatric patient attending the AIDS Clinic at the University of Alabama at Birmingham. The laboratory-adapted HIV-1IIIB strain was propagated and tittered in fresh human PBMCs; pre-titered aliquots of HIV-1ROJO and Hiv-1IIIB were removed from the freezer (−80° C.) and thawed rapidly to room temperature in a biological safety cabinet immediately before use. Phytohemagglutinin (PHA-P) was obtained from Sigma (St. Louis, Mo.) and recombinant IL-2 was obtained from Amgen (San Francisco, Calif.).
Fresh human PBMCs were isolated from screened donors, seronegative for HIV and HBV. Leukophoresed blood was diluted 1:1 with Dulbecco's phosphate buffered saline (PBS), layered over 14 mL of Ficoll-Hypaque density gradient in a 50 mL centrifuge tube and then centrifuged for 30 minutes at 600×g. Banded PBMCs were aspirated from the resulting interface and subsequently washed 2× with PBS by low speed centrifugation. After the final wash, cells were enumerated by trypan blue exclusion and re-suspended at 1×10^7 cells/mL in RPMI 1640 supplemented with 15% Fetal Bovine Serum (FBS), 2 mM L-glutamine, 4 μg/mL PHA-P. The cells were allowed to incubate for 48-72 hours at 37° C. After incubation, PBMCs were centrifuged and reset in RPMI 1640 with 15% FBS, 2 mM L-glutamine, 100 U/ml penicillin, 100 μg/mL streptomycin, 10 μg/mL gentamycin, and 20 U/mL recombinant human IL-2. PBMCs were maintained in this medium at a concentration of 1-2×10^6 cells/mL with biweekly medium changes until used in the assay protocol.
For the standard PBMC assay, PHA-P stimulated cells from at least two normal donors were pooled, diluted in fresh medium to a final concentration of 1×10^6 cells/mL, and plated in the interior wells of 96 well round bottom microplate at 50 μL/well (5×10^4 cells/well). Test drug dilutions were prepared at a 2× concentration in microtiter tubes and […] of each concentration was placed in appropriate wells in a standard format. […] Wells with cells and virus alone were used for virus control. Separate plates were prepared identically without virus for drug cytotoxicity studies using an XTT assay system. The PBMC cultures were maintained for seven days following infection, at which time cell-free supernate samples were collected and assayed for reverse transcriptase activity as described below.
A microtiter based reverse transcriptase (RT) reaction was utilized. See Buckheit et al., AIDS Research and Human Retroviruses 7:295-302 (1991). Tritiated thymidine triphosphate (NEN) (TTP) was resuspended in distilled H2O at 5 Ci/ml. Poly rA and oligo dT were prepared as a stock solution which was kept at −20° C. The RT reaction buffer was prepared fresh on a daily basis and consists of 125 μl 1M EGTA, 125 μl dH2O, 110 μl 10% SDS, 50 μl 1M Tris (pH 7.4), 50 μl 1M DTT, and 40 μl 1M MgCL2. These three solutions were mixed together in a ratio of 2 parts TTP, 1 part poly rA:oligo dT, and 1 part reaction buffer. Ten microliters of this reactions mixture was placed at a round bottom microtiter plate and 15 μl of virus containing supernatant was added and mixed. […] Opti-Fluor-O (Packard) was added to each sample and incorporated radioactivity was quantified utilizing a Wallac 1450 MicroBeta Plus liquid scintillation counter.

Data set [1] can be described thus: Cytotoxicity measurement in uninfected PBMCs (MTS staining). It is filed as cell-based. Particulars: human PBMCs without virus, seven days; read-out: TC50. The procedure: At assay termination the assay plates were stained with the soluble tetrazolium-based dye MTS (CellTiter Reagent, Promega) to determine cell viability and quantify compound toxicity. MTS is metabolized by the mitochondria enzymes of metabolically active cells to yield a soluble formazan product, allowing the rapid quantitative analysis cell viability and compound cytotoxicity. […] At termination of the assay, 20 μl of MTS reagent was added per well. The wells were incubated overnight for the HIV cytoprotection assay at 37° C. The incubation intervals were chosen based on empirically determined times for optimal dye reduction in each cell type. Adhesive plate sealers were used in place of the lids, the sealed plate was inverted several times to mix the soluble formazan product and the plate was read spectrophotometrically at 490 nm with a Molecular Devices Vmax plate reader.

Data set [2] concerns the target T1, interaction between GAGp6 and Tsg101 (Homo sapiens, UniProt Q99816).
T1 construct: Drosophila S2 cell lysate myc-tagged Tsg101 (residues 1-207); made in house; host or cells: Drosophila S2 cells (Tsg101, used as cell lysate)
T1 sequence (Q99816 1-207): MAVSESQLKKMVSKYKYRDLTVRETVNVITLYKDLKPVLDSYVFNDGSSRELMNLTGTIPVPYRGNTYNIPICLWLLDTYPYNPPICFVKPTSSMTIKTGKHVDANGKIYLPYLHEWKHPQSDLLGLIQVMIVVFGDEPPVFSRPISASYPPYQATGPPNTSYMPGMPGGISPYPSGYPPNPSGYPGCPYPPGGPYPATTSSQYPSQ
The data set can be described thus: In vitro binding assay: GST-p6 on plate, myc-tagged Tsg101 (residues 1-207), competition by peptide. Particulars: FIG. 3, different peptide concentrations, fluorescence signal. The procedure:
A fusion protein with a GST tag fused to the HIV-1 GAGp6 domain was recombinantly expressed and purified by chromatography. In addition, a GAGp6 peptide containing the first 14 amino acid residues (“p6(1-14)”) was synthesized chemically by standard peptide synthesis methods. The peptide was purified by conventional protein purification techniques, e.g., by chromatography.
Nunc/Nalgene Maxisorp plates were incubated overnight at 4° C. or for 1-2 hrs at room temperature in 100 μl of a protein coupling solution containing purified GST-p6 and 50 mM Carbonate, pH=9.6. This allowed the attachment of the GST-p6 fusion protein to the plates. Liquids in the plates were then emptied and wells filled with 400 μl/well of a blocking buffer (SuperBlock; Pierce-Endogen, Rockford, Ill.). […]
Plates were then washed 4×100 μl with 1×PBST solution (Invitrogen; Carlsbad, Calif.). […] Plates were then read on a Packard Fusion instrument at an excitation wavelength of 325 nm and an emission wavelength of 420 nm. […]
Different concentrations of the p6(1-14) peptide were tested, and the relative intensities of the fluorescence signals obtained at different concentrations were plotted against the peptide concentrations. […]

For `Cc1cn([C@H]2C[C@H](N=[N+]=[N-])[C@@H](CO)O2)c(=O)[nH]c1=O` [AZT, 3′-Azido-3′-deoxythymidine, reference compound], the IC50 in the data set with HIV (Human immunodeficiency virus 1, PBMC, 168 h, PHA-P stimulated human PBMCs, MOI≈0.1, seven days, RT activity in supernate) was 8 nM. In addition, the “Comments (anti-HIV activity)” value with HIV (human PBMCs) is given as “Control; Highly Active”. The CC50 at 7 days in data set [1] is above 1000 nM.
Turning to “p6(1-14): GAGp6 peptide containing the first 14 amino acid residues, synthesized chemically (LQSRPEPTAPPEES)”, the “inhibition of the interaction between GAGp6 and Tsg101” value in data set [2] is reported as “competitive inhibition”.

One may read the IC50 as the midpoint of a concentration-inhibition curve. The low end stands for greater potency in that assay, the high end for weaker potency in that assay.
